The nature of the experiment: Pupil diameter after instillation of pilocarpine 1% before vs after TBUT (digital imaging system). It counts as in vivo. The following applies: 30 μL; for mean decrease from the baseline in pupil diameter: at 30 minutes, 6 normal eyes. Here is the method:
The following study examines the efficacy of pilocarpine, 1% in constricting the pupil and tropicamide, 1% in dilating the pupil when instilled before and after TBUT. Baseline pupil diameters were determined in 12 normal eyes using a digital imaging system (and controlling illumination). Six (6) of the eyes were dosed with 30 μL of pilocarpine and 6 with 30 μL of tropicamide, all before TBUT. Pupil diameter was measured every minute for 30 minutes after instillation. One day later, the same procedures were repeated in the same eyes, except that the subjects were instructed to stare without blinking (≧6 seconds) before the ophthalmic agents were instilled.

`CC[C@@H]1C(=O)OC[C@@H]1Cc1cncn1C` [Pilocarpine, pilocarpine]: the “mean decrease from the baseline in pupil diameter” value reads like this: (instillation after TBUT) 2.44 units; (instillation before TBUT) 1.12 units. Moreover, for the setting “over the 30 minute period”, the “greater pupil constriction with instillation after TBUT vs before TBUT” value stood at 29.44%.

These data come from patent US6465506B2, “Instillation techniques for ophthalmic agents to enhance treatment effect” (Ophthalmic Research Associates, Inc., priority 2001, dated 2002).
